Assay results taken from patent publication US20220079899A1, “COMPOSITIONS AND METHODS FOR TREATING OCULAR CONDITIONS” (The Regents of the University of California, priority 2019, published 2022).

Test system: calcification in injured hearts of ABCC6-deficient mice
Assay: Calcification after heart injury in a mouse model of PXE
Type: in vivo
Conditions: intraperitoneally 1 mcg/daily for 7 days, versus vehicle
Procedure: FIGS. 1A and 1B show calcification in injured hearts in a mouse model of PXE treated with vehicle (A) or ARL67156 (B).
ENPP1 inhibitors attenuate calcification in a mouse model of PXE. Mice genetically deficient in ABCC6 (the causative gene in PXE) were subjected to heart injury, and either (A) vehicle or (B) ARL67156 was administered (intraperitoneally 1 mcg/daily) for 7 days.

In the case of `CCN(CC)c1ncnc2c1ncn2[C@@H]1O[C@H](COP(=O)(O)OP(=O)(O)C(Br)(Br)P(=O)(O)O)[C@@H](O)[C@H]1O` [ARL67156], the “calcification in the injured region” value is reported as “significant attenuation of calcification”.
